Test results from patent US20190125869A1, “PULSED ELECTROMAGNETIC THERAPY FOR DIRECTING AGENTS TO CANCER CELLS” (MMTC, Inc., priority 2017, published 2019).

Tested on: AT2 prostatic tumor of rats
Assay: Growth of implanted tumors after intravenous Taxol, with or without pulsed microwaves
Assay type: in vivo, Copenhagen rats
Procedure: Treatment times were 30 minutes.
One rat with four implanted tumors, two in each flank, was used. Taxol was injected intravenously at 5 mg/kg. The two lower (right and left) tumors were treated as described above with pulsed microwaves, beginning immediately after the injection. Tumor growth was monitored over 14 days.

In the case of CC(=O)O[C@H]1C(=O)[C@@]2(C)[C@H]([C@H](OC(=O)c3ccccc3)[C@]3(O)C[C@H](OC(=O)[C@H](O)[C@@H](NC(=O)c4ccccc4)c4ccccc4)C(C)=C1C3(C)C)[C@]1(OC(C)=O)CO[C@@H]1C[C@@H]2O [Taxol], the tumor size (Taxol 5 mg/kg intravenously plus pulsed microwaves (two treated tumors), after 14 days) was “barely detectable”, the tumor size (Taxol 5 mg/kg intravenously plus pulsed microwaves (two treated tumors), at 5 days) was “almost disappeared” and the tumor growth (Taxol 5 mg/kg intravenously, non-pulsed control tumors in the same rat, after 14 days) was “continued to grow”. The tumor size (Taxol 5 mg/kg intravenously, non-pulsed control tumors in the same rat, at 5 days) was “remained large” and the remission of tumors (microwave pulsing combined with systemically administered Taxol, pilot study summary) was “remission of tumors could be obtained”.
